# According to PubChem BioAssay AID1918936 (Molecular Pharmacology Branch, DTP, NCI, 2023):
# pIC50: −log10 of the molar value. Values joined by “and” are separate entries in the source; they are usually repeats but may differ in a detail not shown here. Equal entries are not always repeated.
# Tested on: 349418-098-R-PDC complex spheroid viability
# Experiment: Anticancer human tumor 349418-098-R-PDC patient-derived lung adenocarcinoma cell line growth inhibition
# Details: for viability, T/C: stronger effect = lower value
# Method in brief: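 Multicellular complex spheroids of tumor cells with human endothelial cells (HUVEC) and mesenchymal stem cells; the LSD1 inhibitor iadademstat was combined with standard-of-care or investigational agents. Top concentration at or near clinical Cmax, half-log dilutions; final DMSO ≤0.25%.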
# [1] = curve of first compound, second compound 0.1 µM
# [2] = curve of first compound, second compound 0.316 µM
# [3] = curve of first compound, second compound 1 µM
# [4] = curve of first compound, second compound 3.16 µM
# [5] = curve of first compound, second compound 10 µM
# [6] = second compound 0.1 µM, first compound 0.0316 µM
# [7] = second compound 0.1 µM, first compound 0.1 µM
# [8] = second compound 0.316 µM, first compound 0.0316 µM
# [9] = second compound 0.316 µM, first compound 0.1 µM
# [10] = second compound 1 µM, first compound 0.0316 µM
# [11] = second compound 1 µM, first compound 0.1 µM
# [12] = second compound 3.16 µM, first compound 0.0316 µM
# [13] = second compound 3.16 µM, first compound 0.1 µM
# [14] = second compound 10 µM, first compound 0.0316 µM
# [15] = second compound 10 µM, first compound 0.1 µM
# 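Further: spheroids exposed to agents for seven days before readout.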
# 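Wherever viability, T/C is given: 100% = DMSO vehicle control wells.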
smiles,measurement,setting,value
CCN(c1cc(-c2ccc(CN3CCOCC3)cc2)cc(C(=O)NCc2c(C)cc(C)[nH]c2=O)c1C)C1CCOCC1 + NC1CC1c1ccc(-c2cccc(O)c2)cc1,pIC50,[1],6.22
same,pIC50,[2],6.19
same,pIC50,[3],6.11
same,pIC50,[4],6.12
same,pIC50,[5],6.30
same,"viability, T/C","second compound 0.1 µM, first compound 0.00949 µM",116%
same,"viability, T/C","second compound 0.1 µM, first compound 0.03 µM",107%
same,"viability, T/C","second compound 0.1 µM, first compound 0.0949 µM",109%
same,"viability, T/C","second compound 0.1 µM, first compound 0.3 µM",74%
same,"viability, T/C","second compound 0.1 µM, first compound 0.949 µM",34.4%
same,"viability, T/C","second compound 0.1 µM, first compound 3 µM",11.4%
same,"viability, T/C","second compound 0.316 µM, first compound 0.00949 µM",120%
same,"viability, T/C","second compound 0.316 µM, first compound 0.03 µM",121%
same,"viability, T/C","second compound 0.316 µM, first compound 0.0949 µM",113%
same,"viability, T/C","second compound 0.316 µM, first compound 0.3 µM",77%
same,"viability, T/C","second compound 0.316 µM, first compound 0.949 µM",37.5%
same,"viability, T/C","second compound 0.316 µM, first compound 3 µM",11.9%
same,"viability, T/C","second compound 1 µM, first compound 0.00949 µM",123%
same,"viability, T/C","second compound 1 µM, first compound 0.03 µM",124%
same,"viability, T/C","second compound 1 µM, first compound 0.0949 µM",120%
same,"viability, T/C","second compound 1 µM, first compound 0.3 µM",89.2%
same,"viability, T/C","second compound 1 µM, first compound 0.949 µM",42%
same,"viability, T/C","second compound 1 µM, first compound 3 µM",14%
same,"viability, T/C","second compound 3.16 µM, first compound 0.00949 µM",126%
same,"viability, T/C","second compound 3.16 µM, first compound 0.03 µM",121%
same,"viability, T/C","second compound 3.16 µM, first compound 0.0949 µM",122%
same,"viability, T/C","second compound 3.16 µM, first compound 0.3 µM",89.1%
same,"viability, T/C","second compound 3.16 µM, first compound 0.949 µM",41.1%
same,"viability, T/C","second compound 3.16 µM, first compound 3 µM",14.3%
same,"viability, T/C","second compound 10 µM, first compound 0.00949 µM",107%
same,"viability, T/C","second compound 10 µM, first compound 0.03 µM",102%
same,"viability, T/C","second compound 10 µM, first compound 0.0949 µM",107%
same,"viability, T/C","second compound 10 µM, first compound 0.3 µM",70.8%
same,"viability, T/C","second compound 10 µM, first compound 0.949 µM",23.8%
same,"viability, T/C","second compound 10 µM, first compound 3 µM",11.2%
CC(C)CC(NC(=O)CNC(=O)c1cc(Cl)ccc1Cl)B1OC(=O)CC(CC(=O)O)(C(=O)O)O1 (configuration not stated) + NC1CC1c1ccc(-c2cccc(O)c2)cc1,pIC50,[1],9.07
same,pIC50,[2],9.09
same,pIC50,[3],9.10
same,pIC50,[4],9.08
same,pIC50,[5],9.19
same,"viability, T/C","second compound 0.1 µM, first compound 0.000316 µM",108%
same,"viability, T/C","second compound 0.1 µM, first compound 0.001 µM",40.2%
same,"viability, T/C","second compound 0.1 µM, first compound 0.00316 µM",5.55%
same,"viability, T/C","second compound 0.1 µM, first compound 0.01 µM",2.78%
same,"viability, T/C",[6],1.26%
same,"viability, T/C",[7],1.31%
same,"viability, T/C","second compound 0.316 µM, first compound 0.000316 µM",114%
same,"viability, T/C","second compound 0.316 µM, first compound 0.001 µM",35.6%
same,"viability, T/C","second compound 0.316 µM, first compound 0.00316 µM",4.64%
same,"viability, T/C","second compound 0.316 µM, first compound 0.01 µM",1.64%
same,"viability, T/C",[8],1.2%
same,"viability, T/C",[9],0.9%
same,"viability, T/C","second compound 1 µM, first compound 0.000316 µM",109%
same,"viability, T/C","second compound 1 µM, first compound 0.001 µM",36.1%
same,"viability, T/C","second compound 1 µM, first compound 0.00316 µM",5.1%
same,"viability, T/C","second compound 1 µM, first compound 0.01 µM",1.67%
same,"viability, T/C",[10],1.15%
same,"viability, T/C",[11],0.9%
same,"viability, T/C","second compound 3.16 µM, first compound 0.000316 µM",115%
same,"viability, T/C","second compound 3.16 µM, first compound 0.001 µM",38.4%
same,"viability, T/C","second compound 3.16 µM, first compound 0.00316 µM",4.76%
same,"viability, T/C","second compound 3.16 µM, first compound 0.01 µM",1.62%
same,"viability, T/C",[12],0.95%
same,"viability, T/C",[13],1.19%
same,"viability, T/C","second compound 10 µM, first compound 0.000316 µM",94.3%
same,"viability, T/C","second compound 10 µM, first compound 0.001 µM",22.8%
same,"viability, T/C","second compound 10 µM, first compound 0.00316 µM",3.46%
same,"viability, T/C","second compound 10 µM, first compound 0.01 µM",1.24%
same,"viability, T/C",[14],0.47%
same,"viability, T/C",[15],0.62%
COc1cc(C2c3cc4c(cc3C(OC3OC5COC(C)OC5C(O)C3O)C3COC(=O)C23)OCO4)cc(OC)c1O (configuration not stated),"viability, T/C",compound 0.00949 µM,93.8% and 95.9%
same,"viability, T/C",compound 0.03 µM,85.4% and 73.6%
same,"viability, T/C",compound 0.0949 µM,48.8% and 24.1%
same,"viability, T/C",compound 0.3 µM,13.5% and 6.74%
same,"viability, T/C",compound 0.949 µM,7.1% and 4.19%
same,"viability, T/C",compound 3 µM,4.85% and 3.34%
same,pIC50,curve of compound,7.04 and 7.28
CC1(C)CCC(CN2CCN(c3ccc(C(=O)NS(=O)(=O)c4ccc(NCC5CCOCC5)c([N+](=O)[O-])c4)c(Oc4cnc5[nH]ccc5c4)c3)CC2)=C(c2ccc(Cl)cc2)C1 + NC1CC1c1ccc(-c2cccc(O)c2)cc1,pIC50,[1],5.73
same,pIC50,[2],5.73
same,pIC50,[3],5.69
same,pIC50,[4],5.69
same,pIC50,[5],5.77
same,"viability, T/C",[6],111%
same,"viability, T/C",[7],106%
same,"viability, T/C","second compound 0.1 µM, first compound 0.316 µM",104%
same,"viability, T/C","second compound 0.1 µM, first compound 1 µM",80.5%
same,"viability, T/C","second compound 0.1 µM, first compound 3.16 µM",23.9%
same,"viability, T/C","second compound 0.1 µM, first compound 10 µM",0.38%
same,"viability, T/C",[8],113%
same,"viability, T/C",[9],111%
same,"viability, T/C","second compound 0.316 µM, first compound 0.316 µM",108%
same,"viability, T/C","second compound 0.316 µM, first compound 1 µM",82.5%
same,"viability, T/C","second compound 0.316 µM, first compound 3.16 µM",22.9%
same,"viability, T/C","second compound 0.316 µM, first compound 10 µM",0.15%
same,"viability, T/C",[10],119%
same,"viability, T/C",[11],113%
same,"viability, T/C","second compound 1 µM, first compound 0.316 µM",108%
same,"viability, T/C","second compound 1 µM, first compound 1 µM",94.1%
same,"viability, T/C","second compound 1 µM, first compound 3.16 µM",22.5%
same,"viability, T/C","second compound 1 µM, first compound 10 µM",0.17%
same,"viability, T/C",[12],118%
same,"viability, T/C",[13],109%
same,"viability, T/C","second compound 3.16 µM, first compound 0.316 µM",112%
same,"viability, T/C","second compound 3.16 µM, first compound 1 µM",95.2%
same,"viability, T/C","second compound 3.16 µM, first compound 3.16 µM",21.9%
same,"viability, T/C","second compound 3.16 µM, first compound 10 µM",0.16%
same,"viability, T/C",[14],96.3%
same,"viability, T/C",[15],98.9%
same,"viability, T/C","second compound 10 µM, first compound 0.316 µM",93.2%
same,"viability, T/C","second compound 10 µM, first compound 1 µM",83.7%
same,"viability, T/C","second compound 10 µM, first compound 3.16 µM",10.5%
same,"viability, T/C","second compound 10 µM, first compound 10 µM",0.58%
